For 10 compounds, GI50 and TGI results are on record in PubChem BioAssay (NCI).

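Cells were grown in 96-well plates and exposed to each compound for 48 hours at five concentrations; endpoints were interpolated linearly between bracketing concentrations, or set to the highest concentration if not reached. GI50 is the concentration that inhibits growth by half. TGI denotes the concentration required for complete inhibition of growth.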 Bounds are passed on as bounds.

Some test systems named below: HS 578T breast; MCF7 breast; MDA-MB-435; T-47D breast; DU-145 prostate; PC-3 prostate.
Test in all cases: inhibition of tumour cell growth, NCI panel, 48 h

In the case of `c1ccc(-c2cc3n4c(-c5ccccc5)nn(-c5ccccc5)c4cnc-3n2)cc1`, the GI50 was 9.62 µM in the experiment on HS 578T breast, 4.26 µM in the experiment with MCF7 breast and over 50 µM in the experiment on MDA-MB-435. Also, the TGI in the experiment with HS 578T breast, in the experiment with MCF7 breast and in the experiment with MDA-MB-435 was over 50 µM each time.

On to `CCSc1nc(N)c2cnn(CC)c2n1`, for which the GI50 in the experiment on HS 578T breast was 4.19 µM; in the experiment on T-47D breast, 17.3 µM; with MCF7 breast, 16.6 µM; with DU-145 prostate, 5.75 µM; with MDA-MB-435 it was 7.64 µM; with PC-3 prostate, 4.34 µM. Moreover, the TGI is 26 µM in the experiment on HS 578T breast; over 100 µM with T-47D breast; 79 µM in the experiment with MCF7 breast; 40.3 µM in the experiment with DU-145 prostate; 37.8 µM in the experiment on MDA-MB-435; 14.8 µM in the experiment with PC-3 prostate.

For the compound `Cc1c2ccccc2c(C)n2c1nc1cc(Cl)c(Cl)cc12`, the GI50 in the experiment with HS 578T breast is over 100 µM; in the experiment on T-47D breast, 3.95 µM; in the experiment on MCF7 breast it was 1.09 µM; in the experiment with DU-145 prostate, over 100 µM; with MDA-MB-435 it was over 100 µM; in the experiment on PC-3 prostate, 31.4 µM. The TGI in the experiment on HS 578T breast, with T-47D breast, with MCF7 breast, in the experiment with DU-145 prostate, in the experiment on MDA-MB-435 and in the experiment on PC-3 prostate was over 100 µM throughout.

Regarding `CCOC(=O)N(O)c1ccc(/C=C/c2ccccc2)cc1`, the GI50 is 29.4 µM in the experiment on HS 578T breast; 0.452 µM with T-47D breast; 0.341 µM in the experiment on MCF7 breast; 11.2 µM with DU-145 prostate; 11 µM in the experiment with MDA-MB-435; 8.23 µM in the experiment with PC-3 prostate. Further, the TGI is over 100 µM with HS 578T breast; 8.81 µM with T-47D breast; 14.6 µM in the experiment on MCF7 breast; over 88.6 µM in the experiment with DU-145 prostate; 48.6 µM with MDA-MB-435; over 100 µM in the experiment on PC-3 prostate.

In the case of `O=C1CC2OCC=C3CN4CCC5(C(=O)O)C(N1)C2C3CC45` (stereo not drawn), the TGI in the experiment on HS 578T breast, in the experiment with T-47D breast, in the experiment on MCF7 breast, with DU-145 prostate, in the experiment on MDA-MB-435 and in the experiment with PC-3 prostate was over 100 µM each time.

For the compound `O=C(N/N=C/c1ccc(N(CCCl)CCCl)cc1)c1ccc(C(=O)N/N=C/c2ccc(N(CCCl)CCCl)cc2)cc1`, the GI50 with HS 578T breast is 3.54 µM; in the experiment on T-47D breast it was 5.54 µM; in the experiment with MCF7 breast, 0.38 µM; in the experiment on DU-145 prostate, 0.341 µM; in the experiment on MDA-MB-435 it was 29.8 µM. For the same compound, the TGI in the experiment on HS 578T breast, in the experiment with T-47D breast, with MCF7 breast, in the experiment with DU-145 prostate and in the experiment with MDA-MB-435 was over 100 µM throughout.

`CC(=O)/C(=C/N1CCN(C(=O)c2ccco2)C1=S)C(=O)c1ccccc1`: the GI50 with T-47D breast is 4.29 µM; in the experiment with MCF7 breast it was 1.25 µM; with DU-145 prostate it was 11 µM; in the experiment on MDA-MB-435, 10.7 µM; with PC-3 prostate, 17.1 µM. The TGI in the experiment with T-47D breast was over 50 µM; with MCF7 breast it was 4.2 µM; in the experiment on DU-145 prostate it was 30.4 µM; in the experiment with MDA-MB-435, 43.9 µM; in the experiment on PC-3 prostate, over 50 µM.

For the compound `C=Cc1cc(OC)c2c(c1)c(=O)oc1c2cc(OC)c2c(O)ccc(C3OC(C(C)O)C(O)C3O)c21` (stereo not drawn), the GI50 with HS 578T breast is 0.0191 µM; in the experiment on T-47D breast, 0.00812 µM; in the experiment on MCF7 breast, 0.000944 µM; with MDA-MB-435, 0.0145 µM; in the experiment on PC-3 prostate, 0.0105 µM. For the same compound, the TGI amounted to 0.0617 µM with HS 578T breast; 0.08 µM in the experiment on T-47D breast; 0.321 µM with MCF7 breast; 0.0337 µM in the experiment with MDA-MB-435; 0.153 µM in the experiment on PC-3 prostate.

For `Cc1nc2sc(C(=O)Nc3ccccc3)c(N)c2cc1C(=O)c1ccccc1`, the GI50 in the experiment with HS 578T breast is 2.47 µM; in the experiment on T-47D breast it was 2.94 µM; in the experiment on MCF7 breast it was 1.73 µM; in the experiment with DU-145 prostate, 1.73 µM; in the experiment on PC-3 prostate, 1.66 µM. Besides, the TGI with HS 578T breast, in the experiment with T-47D breast, in the experiment with MCF7 breast, in the experiment on DU-145 prostate and with PC-3 prostate was over 50 µM in each case.

For the compound `COC(=O)[C@@H](C)C[C@H](Cc1ccccc1)NC(=O)c1csc([C@@H](C[C@H](C(C)C)N(C)C(=O)[C@@H](NC(=O)[C@H]2CCCCN2C)C(C(F)(F)F)C(F)(F)F)OC(C)=O)n1`, the GI50 is 0.047 µM in the experiment with HS 578T breast; 0.0118 µM in the experiment with MCF7 breast; 0.047 µM in the experiment with DU-145 prostate; 0.00437 µM in the experiment with MDA-MB-435; 0.0452 µM in the experiment with PC-3 prostate. In addition, the TGI with HS 578T breast is 15.4 µM; in the experiment on MCF7 breast it was over 16.7 µM; in the experiment on DU-145 prostate it was over 16.7 µM; with MDA-MB-435 it was 0.0219 µM; in the experiment on PC-3 prostate, 3.87 µM.
